Reference: patent US20130210852A1, “METHODS FOR TREATING INFECTION” (priority 2010, published 2013)
Values after ≈ are worked out from the molar mass of the structure shown. “Also recorded” adds a separate entry of the source.

Key:
[1] = system: EAEC strain O42 adherence to HEp-2 cells; assay type: cell-based, human
[2] = system: EAEC strain O42 adherence to A549 cells; assay type: cell-based, human; details: 24 h pretreatment with 64 mg (FIG. 2: 64 μg/ml), EAEC 3 h
[3] = system: B. anthracis Sterne strain 7702 spores on A549 cells; assay type: cell-based, human; details: A549 cells pretreated 24 h, spores 1 h
[4] = system: enteroaggregative E coli strains; assay: MIC against rifaximin by agar dilution, EAEC isolates; assay type: cell-based; details: Escherichia coli; 2 EAEC isolates
Protocol: (§1) Five enterotoxigenic E coli strains, 2 enteroaggregative E coli strains, and 1 S sonnei isolate were included in the study. The isolates had been identified previously from patients with TD acquired in Guadalajara, Mexico, during the summer of 2004 (5). […] The susceptibility of all isolates to rifaximin was determined by agar dilution methodology following the recommendations of the Clinical and Laboratory Standards Institute.

S sonnei isolate [5] = assay: MIC against rifaximin by agar dilution, S sonnei isolate; assay type: cell-based; details: Shigella sonnei
Protocol: as §1

S sonnei isolate [6] = assay: Isolate viability after rifaximin exposure, S sonnei; assay type: cell-based, Shigella sonnei
MMP-9 in EAEC isolates = assay: Matrix metalloproteinase-9 detection by gelatin zymography, EAEC; assay type: cell-based, Escherichia coli
Protocol: (§2) Matrix Metalloproteinase-9 Detection Expression of matrix metalloproteinase-9 (MMP-9) was analyzed using gelatin zymography in all viable EAEC and S. sonnei isolates growing on MacConkey agar. Isolates were suspended in 1 mL of 0.1 M phosphate buffered saline (pH 7.2) and centrifuged at 1000 g for 10 minutes at 4° C. The supernatant was subjected to gelatin zymography to detect MMP-9 activity using a modified Heussen and Dowdle protocol (9). In summary, the supernatant was diluted 1:2 in a sample buffer (125 mM Tris-HCl, pH 6.8, 20% glycerol, 4% sodium dodecyl sulfate, 0.02% bromphenol blue), and 20 μL was loaded on to a 10% SDS-PAGE gel containing 1 mg/mL gelatin. Prestained standard proteins were used as molecular weight markers. After electrophoresis, gels were rinsed with incubation buffer (2.5% triton X-100, 50 mM Tris-HCl, pH 7.4, 0.02% Brij 35, 10 mM CaCl2, 2 μM ZnCl2) for 1 hour at room temperature to remove SDS. Gels were then incubated overnight at 37° C. and subsequently stained with Coomassie brilliant blue R-250 (Thermo Fisher Scientific, Inc, Rockford, Ill.). […] Matrix metalloproteinase-9 was identified among all gelatinolytic proteins by size.

[7] = system: MMP-9 in S sonnei isolate; assay: Matrix metalloproteinase-9 detection by gelatin zymography, S sonnei; assay type: cell-based, Shigella sonnei
Protocol: as §2

HEp-2 cells = assay: Cytokine arrays of HEp-2 supernatants (Panomics); details: antibiotic 64 μg/ml, 24 h
ETEC strains = assay: Isolate viability after rifaximin exposure, ETEC
EAEC isolates = assay: Isolate viability after rifaximin exposure, EAEC

CO[C@H]1/C=C/O[C@@]2(C)Oc3c(C)c(O)c4c(O)c(c5c(nc6cc(C)ccn65)c4c3C2=O)NC(=O)/C(C)=C\C=C\[C@H](C)[C@H](O)[C@@H](C)[C@@H](O)[C@@H](C)[C@H](OC(C)=O)[C@@H]1C [Rifaximin, (2S,16Z,18E,20S,21S,22R,23R,24R,25S,26S,27S,28E)-5,6,21,23,25 Pentahydroxy-27-methoxy-2,4,11,16,20,22,24,26-octamethyl-2,7-(epoxypentadeca-(1,11,13)trienimino)benzofuro (4,5-e) pyrido(1,2,-a) benzimidazole-1,15(2H)-dione,25-acetate]
EAEC adherence to HEp-2 cells (CFU, % of total bacteria added) [1]: significantly lower; also recorded: significantly reduced; also recorded: reduced EAEC adherence
EAEC bacterial counts in the supernatants ([1]; HEp-2 cells pretreated 24 h, EAEC 3 h): No differences in bacterial counts
EAEC adherence to A549 cells [2]: significantly reduced
adherence of B. anthracis [3]: significant reductions
internalization of B. anthracis ([3]; then gentamicin 100 μg/ml 1 h): significant reductions
MIC [4]: 64 µg/mL (≈ 81.4 µM)
MIC (S sonnei isolate [5]): 16 µg/mL (≈ 20.4 µM)
S sonnei viability after exposure (S sonnei isolate [6]; rifaximin 8 mg/L for 4, 8, 18, and 24 hours): viable
S sonnei viability after exposure (S sonnei isolate [6]; rifaximin 32 or 64 mg/L at any time point): not viable
MMP-9 expression by EAEC isolates (MMP-9 in EAEC isolates; rifaximin 8 mg/L for 4 and 8 hours): expressed MMP-9
MMP-9 expression by EAEC isolates (MMP-9 in EAEC isolates; rifaximin 8 mg/L for 24 hours): undetectable
MMP-9 expression by EAEC isolates (MMP-9 in EAEC isolates; rifaximin 8 mg/L, 18-hour time point): one EAEC isolate produced MMP-9, but the other isolate did not
MMP-9 expression by EAEC isolates (MMP-9 in EAEC isolates; rifaximin 32 or 64 mg/L for 4, 8, or 18 hours): undetectable
MMP-9 in the S sonnei isolate ([7]; other time points and rifaximin concentrations): either undetectable or the isolate was not viable
MMP-9 in the S sonnei isolate ([7]; rifaximin 8 mg/L for 4 hours): detectable
cytokine profile of HEp-2 supernatants (HEp-2 cells): contained detectable levels of RANTES and IL-4 only; also recorded: reduced the expression of various proinflammatory cytokines
ETEC viability after exposure (ETEC strains; rifaximin 8 mg/L, 24-hour exposure): viable
ETEC viability after exposure (ETEC strains; rifaximin 64 mg/L for 18 hours or 32 and 64 mg/L for 24 hours): No ETEC isolates were viable
ETEC viability after exposure (ETEC strains; rifaximin 8, 32, and 64 mg/L for 4 and 8 hours, 8 and 32 mg/L for 18 hours): viable
EAEC viability after exposure (EAEC isolates; rifaximin 8 mg/L for 24 hours): viable
EAEC viability after exposure (EAEC isolates; rifaximin 8, 32, and 64 mg/L at 4, 8, and 18 hours): viable
EAEC viability after exposure (EAEC isolates; rifaximin 32 and 64 mg/L for 24 hours): no viable isolates were recovered
